According to US8481531B2, “Bicyclic heterocyclyl derivatives as FGFR kinase inhibitors for therapeutic use” (Astex Therapeutics Ltd, priority 2009, dated 2013):

Columns and labels:
[1] = biological target: T1, FGFR3 (Homo sapiens, UniProt P22607); test: FGFR3 in vitro kinase inhibitory activity assay (TRF); format: biochemical; details: 8 μM ATP, 3 hours; read-out: FGFR3 IC50(μM) or % I
T1 construct: purchased Upstate
Experimental: (§1) FGFR3, VEGFR2 and PDGFR in vitro Kinase Inhibitory Activity Assays
(§2) Enzymes (from Upstate), prepared at 2× final concentration, were incubated with test compounds, biotinylated Flt3 substrate (biotin-VASSDNEYFYVDF) (Cell Signalling Technology Inc.) and ATP in the appropriate assay buffer (Table 1). The reaction was allowed to proceed for 3 hours (FGFR3), 1 hour (VEGFR2, PDGFR-beta) at room temperature on a plate shaker at 700 rpm before being stopped with 35 mM EDTA, pH 8 (FGFR3, VEGFR2) or 55 mM EDTA, pH 8 (PDGFR-beta). 5× detection mix (50 mM HEPES pH 7.5, 0.1% BSA, 11.34 nM Eu-anti-pY (PY20) (PerkinElmer) 74 nM SA-XL665 (Cisbio) for FGFR3, 50 mM HEPES, pH 7.5, 0.1% BSA, 11.34 nM Eu-anti-pY (PY20), 187.5 nM SA-XL665 for VEGFR2 and 50 mM HEPES, pH 7.5, 0.1% BSA, 11.34 nM Eu-anti-pY (PT66) (PerkinElmer), 375 nM SA-XL665 (Cisbio) for PDGFR-beta) was then added to each well and the plate sealed and incubated at room temperature for one hour on a plate shaker at 700 rpm. The plate was then read on a Packard Fusion plate reader or a BMG Pherastar both in TRF mode.

[2] = biological target: T2, VEGFR2 (Homo sapiens, UniProt P35968); test: VEGFR2 in vitro kinase inhibitory activity assay (TRF); format: biochemical; details: 0.5 μM ATP, 1 hour; read-out: VEGFR2 IC50(μM) or % I
T2 construct: purchased Upstate
T2 sequence (P35968 20-1356): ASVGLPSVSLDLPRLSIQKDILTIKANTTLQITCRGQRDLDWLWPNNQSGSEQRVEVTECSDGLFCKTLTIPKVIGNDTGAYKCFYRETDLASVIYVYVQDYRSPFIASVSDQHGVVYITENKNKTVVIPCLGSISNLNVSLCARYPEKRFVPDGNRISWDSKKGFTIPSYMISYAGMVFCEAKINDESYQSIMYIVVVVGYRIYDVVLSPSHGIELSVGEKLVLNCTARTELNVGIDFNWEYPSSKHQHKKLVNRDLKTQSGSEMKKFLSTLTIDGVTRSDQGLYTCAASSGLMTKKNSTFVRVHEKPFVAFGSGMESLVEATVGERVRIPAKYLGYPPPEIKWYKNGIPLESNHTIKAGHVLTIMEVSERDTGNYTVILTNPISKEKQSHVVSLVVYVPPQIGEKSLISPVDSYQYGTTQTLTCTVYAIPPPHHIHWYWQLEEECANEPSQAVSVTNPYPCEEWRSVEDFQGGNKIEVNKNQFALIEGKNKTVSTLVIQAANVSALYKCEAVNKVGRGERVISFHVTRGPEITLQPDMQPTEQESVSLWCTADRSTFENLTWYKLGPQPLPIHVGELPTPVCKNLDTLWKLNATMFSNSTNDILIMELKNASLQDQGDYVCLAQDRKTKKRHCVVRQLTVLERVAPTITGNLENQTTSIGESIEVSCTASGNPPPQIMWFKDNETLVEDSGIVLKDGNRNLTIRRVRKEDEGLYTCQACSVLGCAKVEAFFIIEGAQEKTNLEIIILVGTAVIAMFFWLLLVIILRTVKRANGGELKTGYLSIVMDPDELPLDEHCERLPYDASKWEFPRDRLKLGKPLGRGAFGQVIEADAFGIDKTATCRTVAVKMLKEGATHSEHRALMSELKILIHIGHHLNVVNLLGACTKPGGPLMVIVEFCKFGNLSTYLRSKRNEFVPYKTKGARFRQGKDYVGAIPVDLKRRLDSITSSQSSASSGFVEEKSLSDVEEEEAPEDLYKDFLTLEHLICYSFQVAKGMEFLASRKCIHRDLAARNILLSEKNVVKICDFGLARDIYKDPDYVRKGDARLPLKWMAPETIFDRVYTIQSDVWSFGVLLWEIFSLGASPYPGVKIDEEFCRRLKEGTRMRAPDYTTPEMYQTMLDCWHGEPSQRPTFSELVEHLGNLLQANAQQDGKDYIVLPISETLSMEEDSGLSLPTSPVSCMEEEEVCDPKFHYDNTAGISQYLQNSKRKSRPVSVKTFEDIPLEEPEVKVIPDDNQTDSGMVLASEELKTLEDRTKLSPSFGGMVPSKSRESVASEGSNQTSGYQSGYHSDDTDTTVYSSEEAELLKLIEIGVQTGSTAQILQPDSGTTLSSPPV
Experimental: as §1, §2

[3] = test system: parental wild-type Ba/F3 cells; test: Ba/F3 (WT) cell proliferation assay (Alamar Blue); format: cell-based; details: BaF3, 72 hours, read-out: BaF3 WT prolif; for inhibition at 10 µM / inhibition at 1 µM / inhibition at 3 µM: Mus musculus; for IC50: with mouse IL-3
Experimental: (§3) Ba/F3-TEL-FGFR3 & Ba/F3 (WT) Cell Proliferation Assays
(§4) Stably transfected Ba/F3-TEL-FGFR3 cells were plated out into black 96-well tissue culture plates with clear bottoms in RPMI medium containing 10% FBS and 0.25 mg/ml G418 at a density of 5×10^3 cells/well (200 μl per well). The parental wild-type Ba/F3 cells (DSMZ no.: ACC 300) were plated out into black 96-well tissue culture plates with clear bottoms in RPMI medium containing 10% FBS and 2 ng/ml mouse IL-3 (R&D Systems) at a density of 2.5×10^3 cells/well (200 μl per well). Plates were placed in an incubator overnight before adding the compounds the following day. Dilutions of compounds were made in DMSO starting at 10 mM and were diluted into the wells to give a final DMSO concentration of 0.1% in assay. Compounds were left on the cells for 72 hours before the plates were removed from the incubator and 20 μl of Alamar Blue™ (Biosource) was added to each well. Plates were placed in the incubator for 4-6 hours before reading plates at 535 nm (excitation)/590 nm (emission) on a Fusion plate reader (Packard). Where inhibition is high an IC50 can be determined.

[4] = biological target: T3, Ba/F3-TEL-FGFR3 cells (Homo sapiens, UniProt P22607); test: Ba/F3-TEL-FGFR3 cell proliferation assay (Alamar Blue); format: cell-based; details: 72 hours; for GI50: read-out: BaF3-TEL-FGFR3 prolif
T3 construct: fused on or other part: P41212 (Transcription factor ETV6)
T3 sequence (P22607 whole entry, change not shown, the tested form may be a part): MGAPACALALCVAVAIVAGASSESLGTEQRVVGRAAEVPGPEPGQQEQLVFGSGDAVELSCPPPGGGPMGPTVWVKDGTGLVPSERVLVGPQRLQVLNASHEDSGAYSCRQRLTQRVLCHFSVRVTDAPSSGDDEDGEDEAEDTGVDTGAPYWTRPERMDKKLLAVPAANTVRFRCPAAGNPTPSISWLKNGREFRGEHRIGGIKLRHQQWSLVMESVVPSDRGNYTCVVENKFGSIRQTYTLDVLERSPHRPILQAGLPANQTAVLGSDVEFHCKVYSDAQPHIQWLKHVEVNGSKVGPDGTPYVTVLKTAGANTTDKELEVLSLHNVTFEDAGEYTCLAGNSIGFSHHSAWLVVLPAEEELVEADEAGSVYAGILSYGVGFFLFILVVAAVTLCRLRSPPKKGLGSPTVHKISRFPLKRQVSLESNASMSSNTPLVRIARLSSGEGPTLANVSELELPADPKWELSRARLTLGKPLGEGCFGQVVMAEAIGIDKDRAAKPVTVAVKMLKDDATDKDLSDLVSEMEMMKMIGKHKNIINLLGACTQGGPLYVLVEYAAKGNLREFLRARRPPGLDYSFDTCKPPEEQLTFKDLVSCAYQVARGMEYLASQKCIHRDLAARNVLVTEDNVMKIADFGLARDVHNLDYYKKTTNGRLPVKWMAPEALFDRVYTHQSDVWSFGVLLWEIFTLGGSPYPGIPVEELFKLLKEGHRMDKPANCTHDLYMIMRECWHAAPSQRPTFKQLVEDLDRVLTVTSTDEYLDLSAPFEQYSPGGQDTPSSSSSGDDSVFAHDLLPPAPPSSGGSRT
Experimental: as §3, §4

T1 sequence (P22607 23-806): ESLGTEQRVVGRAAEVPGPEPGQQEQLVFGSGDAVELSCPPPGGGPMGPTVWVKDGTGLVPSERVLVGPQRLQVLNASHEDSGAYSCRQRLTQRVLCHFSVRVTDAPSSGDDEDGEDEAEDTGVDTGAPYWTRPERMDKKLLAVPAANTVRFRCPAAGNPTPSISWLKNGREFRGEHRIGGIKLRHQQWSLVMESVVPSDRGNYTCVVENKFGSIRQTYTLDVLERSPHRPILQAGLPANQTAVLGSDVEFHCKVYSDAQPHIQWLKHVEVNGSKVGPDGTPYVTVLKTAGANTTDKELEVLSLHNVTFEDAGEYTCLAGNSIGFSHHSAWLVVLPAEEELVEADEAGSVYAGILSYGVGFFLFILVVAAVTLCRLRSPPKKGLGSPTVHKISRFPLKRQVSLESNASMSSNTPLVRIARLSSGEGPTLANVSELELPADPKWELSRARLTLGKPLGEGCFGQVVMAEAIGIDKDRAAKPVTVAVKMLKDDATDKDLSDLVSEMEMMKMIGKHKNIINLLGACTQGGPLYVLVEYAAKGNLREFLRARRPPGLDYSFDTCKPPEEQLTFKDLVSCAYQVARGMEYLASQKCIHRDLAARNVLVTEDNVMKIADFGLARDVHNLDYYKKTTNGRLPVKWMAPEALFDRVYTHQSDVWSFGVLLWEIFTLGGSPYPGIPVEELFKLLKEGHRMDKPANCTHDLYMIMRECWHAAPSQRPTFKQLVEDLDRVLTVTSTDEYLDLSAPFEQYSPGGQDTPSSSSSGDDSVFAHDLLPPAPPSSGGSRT

| SMILES | IC50 [1] [µM] | IC50 [2] [µM] | inhibition at 10 µM [3] [%] | GI50 [4] [nM] | inhibition at 1 µM [3] [%] | IC50 [3] [µM] | BaF3-TEL-FGFR3 prolif (μM) ([4]; % at 3.00 μM) [% at] | inhibition at 3 µM [3] [%] | BaF3-TEL-FGFR3 prolif (μM) ([4]; % at 1.00 μM) [% at] |
| --- | --- | --- | --- | --- | --- | --- | --- | --- | --- |
| Cc1nc(CON=Cc2ccn3c(-c4cccc(NC(=O)NCC(F)(F)F)c4)cnc3c2)cs1 [Compound 1-9, 1-(3-{7-[(2-Methyl-thiazol-4-ylmethoxyimino)-methyl]-imidazo[1,2-a]pyridin-3-yl}-phenyl)-3-(2,2,2-trifluoro-ethyl)-urea] | 0.014 | 0.68 |  |  |  |  |  |  |  |
| C/C(=N\OCCOCCO)c1ccn2c(-c3cccc(NC(=O)NCC(F)(F)F)c3)cnc2c1 [Compound 1-46, 1-[3-(7-{1-[2-(2-Hydroxy-ethoxy)-ethoxyimino]-ethyl}-imidazo[1,2-a]pyridin-3-yl)-phenyl]-3-(2,2,2-trifluoro-ethyl)-urea] | 0.0031 | 0.068 | 39 | 32 |  |  |  |  |  |
| CON=C(c1ccn2c(-c3cccc(NC(=O)NCC(F)(F)F)c3)cnc2c1)C1CC1 [Compound 1-24, 1-[3-(7-{Cyclopropyl-methoxyimino-methyl}-imidazo[1,2-a]pyridin-3-yl)-phenyl]-3-(2,2,2-trifluoro-ethyl)-urea] | 0.015 | 0.23 |  | 260 | 38 |  |  |  |  |
| O=C(NCC(F)(F)F)Nc1cccc(-c2cnc3cc(C=NOCc4ccncc4)ccn23)c1 [Compound 1-4, 1-(3-{7-[(Pyridin-4-ylmethoxyimino)-methyl]-imidazo[1,2-a]pyridin-3-yl}-phenyl)-3-(2,2,2-trifluoro-ethyl)-urea] | 0.014 | 0.23 |  | 260 |  | 5.3 |  |  |  |
| O=C(NCC(F)(F)F)Nc1cccc(-c2cnc3cc(C=NOCCC4CCNCC4)ccn23)c1 [Compound 1-59, 1-(3-{7-[(2-Piperidin-4-yl-ethoxyimino)-methyl]-imidazo[1,2-a]pyridin-3-yl}-phenyl)-3-(2,2,2-trifluoro-ethyl)-urea] | 0.024 | 0.33 | 11 |  |  |  | 42.0 |  |  |
| O=C(NCC(F)(F)F)Nc1cccc(-c2cnc3cc(C=NOCc4ccccn4)ccn23)c1 [Compound 1-6, 1-(3-{7-[(Pyridin-2-ylmethoxyimino)-methyl]-imidazo[1,2-a]pyridin-3-yl}-phenyl)-3-(2,2,2-trifluoro-ethyl)-urea] | 0.013 | 0.48 |  |  |  |  |  |  |  |
| CCC(=NO)c1ccn2c(-c3cccc(NC(=O)NCC(F)(F)F)c3)cnc2c1 [Compound 1-26, 1-[3-(7-{1-Hydroxyimino-propyl}-imidazo[1,2-a]pyridin-3-yl)-phenyl]-3-(2,2,2-trifluoro-ethyl)-urea] | 0.0045 | 0.083 | 40 | 120 |  |  |  |  |  |
| CN(CCON=Cc1ccn2c(-c3cccc(NC(=O)NCC(F)(F)F)c3)cnc2c1)CCS(C)(=O)=O [Compound 1-42, 1-{3-[7-({2-[(2-Methanesulfonyl-ethyl)-methyl-amino]-ethoxyimino}-methyl)-imidazo[1,2-a]pyridin-3-yl]-phenyl}-3-(2,2,2-trifluoro-ethyl)-urea] | 0.017 | 0.54 | 10 | 1300 |  |  |  |  |  |
| COC1CCN(CCCON=Cc2ccn3c(-c4cccc(NC(=O)NCC(F)(F)F)c4)cnc3c2)CC1 [Compound 1-36, 1-[3-(7-{[3-(4-Methoxy-piperidin-1-yl)-propoxyimino]-methyl}-imidazo[1,2-a]pyridin-3-yl)-phenyl]-3-(2,2,2-trifluoro-ethyl)-urea] | 0.024 | 0.36 |  | 380 |  |  |  | 34 |  |
| N#CCCN1CCN(CCCON=Cc2ccn3c(-c4cccc(NC(=O)NCC(F)(F)F)c4)cnc3c2)CC1 [Compound 1-60, 1-{3-[7-({3-[4-(2-Cyano-ethyl)-piperazin-1-yl]-propoxyimino}-methyl)-imidazo[1,2-a]pyridin-3-yl]-phenyl}-3-(2,2,2-trifluoro-ethyl)-urea] | 0.022 | 0.56 |  |  | 0 |  |  |  | 85.0 |
| O=C(NCC(F)(F)F)Nc1cccc(-c2cnc3cc(C(=NO)C4CCC4)ccn23)c1 [Compound 1-28, 1-[3-(7-{Cyclobutyl-hydroxyimino-methyl}-imidazo[1,2-a]pyridin-3-yl)-phenyl]-3-(2,2,2-trifluoro-ethyl)-urea] | 0.022 | 0.33 |  | 570 |  |  |  | 43 |  |
| CON=C(c1ccn2c(-c3cccc(NC(=O)NCC(F)(F)F)c3)cnc2c1)C1CCC1 [Compound 1-27, 1-[3-(7-{Cyclobutyl-methoxyimino-methyl}-imidazo[1,2-a]pyridin-3-yl)-phenyl]-3-(2,2,2-trifluoro-ethyl)-urea] | 0.08 | 1.2 |  | 1300 |  | 1.5 |  |  |  |
| O=C(NCC(F)(F)F)Nc1cccc(-c2cnc3cc(/C=N/OCCCO)ccn23)c1 [Compound 1-18, 1-(3-{7-[(3-Hydroxy-propoxyimino)-methyl]-imidazo[1,2-a]pyridin-3-yl}-phenyl)-3-(2,2,2-trifluoro-ethyl)-urea] | 0.019 | 0.4 |  | 240 |  | 4.7 |  |  |  |
| O=C(NCC(F)(F)F)Nc1cccc(-c2cnc3cc(C=NOCC(O)CN4CCC(O)CC4)ccn23)c1 (stereo not shown) [Compound 1-43, 1-[3-(7-{[2-Hydroxy-3-(4-hydroxy-piperidin-1-yl)-propoxyimino]-methyl}-imidazo[1,2-a]pyridin-3-yl)-phenyl]-3-(2,2,2-trifluoro-ethyl)-urea] | 0.024 | 0.52 | 0 | 6600 |  |  |  |  |  |
| CS(=O)(=O)CCNCCON=Cc1ccn2c(-c3cccc(NC(=O)NCC(F)(F)F)c3)cnc2c1 [Compound 1-52, 1-[3-(7-{[2-(2-Methanesulfonyl-ethylamino)-ethoxyimino]-methyl}-imidazo[1,2-a]pyridin-3-yl)-phenyl]-3-(2,2,2-trifluoro-ethyl)-urea] | 0.026 | 0.73 | 25 | 4900 |  |  |  |  |  |
| CC(C)Oc1cc(NC(=O)NCC(F)(F)F)cc(-c2cnc3cc(/C(=N\OCCO)C4CC4)ccn23)c1 [Compound 1-64, 1-[3-(7-{Cyclopropyl-[(Z)-2-hydroxyethoxyimino]-methyl}-imidazo[1,2-a]pyridin-3-yl)-5-isopropoxy-phenyl]-3-(2,2,2-trifluoro-ethyl)-urea] | 0.03 | 1.2 |  | 500 |  |  |  |  |  |
| C/C(=N\OCCCN1CCOCC1)c1ccn2c(-c3cccc(NC(=O)NCC(F)(F)F)c3)cnc2c1 [Compound 1-44, 1-[3-(7-{1-3-Morpholin-4-yl-propoxyimino-ethyl}-imidazo[1,2-a]pyridin-3-yl)-phenyl]-3-(2,2,2-trifluoro-ethyl)-urea] | 0.0038 | 0.059 |  |  |  |  |  |  |  |
| Cn1cncc1CO/N=C/c1ccn2c(-c3cccc(NC(=O)NCC(F)(F)F)c3)cnc2c1 [Compound 1-20, 1-(3-{7-[(3-Methyl-3H-imidazol-4-ylmethoxyimino)-methyl]-imidazo[1,2-a]pyridin-3-yl}-phenyl)-3-(2,2,2-trifluoro-ethyl)-urea] | 0.0071 | 0.36 |  |  |  |  |  |  |  |
| COCCN(C)CCON=Cc1ccn2c(-c3cccc(NC(=O)NCC(F)(F)F)c3)cnc2c1 [Compound 1-40, 1-{3-[7-({2-[(2-Methoxy-ethyl)-methyl-amino]-ethoxyimino}-methyl)-imidazo[1,2-a]pyridin-3-yl]-phenyl}-3-(2,2,2-trifluoro-ethyl)-urea] | 0.028 | 0.72 |  |  |  |  |  |  |  |
| CO/N=C(\C)c1ccn2c(-c3cccc(NC(=O)NCC(F)(F)F)c3)cnc2c1 [Compound 1-22] | 0.0051 | 0.092 |  |  |  |  |  |  |  |
